Measured values taken from patent publication US10669289B2, “Boronic acid derivatives” (MERCK PATENT GMBH, priority 2014, dated 2020).
pIC50: −log10 of the molar value.

Key:
[1] = molecular target: human immuno proteasome (LMP7) (Homo sapiens (Human), UniProt P28062); test: Determination of LMP7 activity (fluorescence intensity assay, Suc-LLVY-AMC); format: biochemical
Procedure, shortened: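 Fluorogenic Suc-LLVY-AMC cleavage (40 μM substrate, 60 min, 37° C., ex 350/em 450 nm) measured after 0.25 nM human immunoproteasome was exposed to compound at 30 μM–15 pM. Preincubation was 20 min by default or 120 min (long) at 25° C., in Tris pH 7.4 with 0.03% SDS, 1 mM EDTA and 1% DMSO.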

[2] = molecular target: human constitutive proteasome (Beta5) (Homo sapiens (Human), UniProt P28074); test: Determination of Beta5 activity (fluorescence intensity assay, Suc-LLVY-AMC); format: biochemical
Procedure, shortened: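 Purified human constitutive proteasome (1.25 nM) preincubated with compounds (30 μM–15 pM) for 20 min (default) or 120 min at 25 °C in 50 mM Tris pH 7.4, 0.03% SDS, 1 mM EDTA, 1% DMSO. Suc-LLVY-AMC substrate at 40 μM, 60 min at 37 °C. Fluorescence read at ex 350/em 450 nm.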

[3] = LMP7 versus Beta5, long incubation (120 min)
[4] = LMP7 versus Beta5, incubation for 20 minutes

| Compound | Selectivity LMP7 vs Beta5 [1, 3] | pIC50 ([1]; long incubation (120 min)) | pIC50 ([2]; long incubation (120 min)) | Selectivity LMP7 vs Beta5 [1, 4] | pIC50 ([1]; incubation for 20 minutes) | pIC50 ([2]; incubation for 20 minutes) |
| --- | --- | --- | --- | --- | --- | --- |
| C=CC(=O)N(CC)CC(=O)N[C@@H](Cc1coc2ccccc12)B(O)O [Compound No. 36, [(1R)-2-(benzofuran-3-yl)-1-[[2-[ethyl(prop-2-enoyl)amino]acetyl]-amino]ethyl]boronic Acid] |  |  |  | +++ (70 ≤ 100) | > 7.30 | 6.30 to 7.30 |
| C=CC(=O)N(CC)CC(=O)N[C@H](Cc1ccsc1)B(O)O [Compound No. 76, [(1S)-1-[[2-[ethyl(prop-2-enoyl)amino]acetyl]amino]-2-(3-thienyl)ethyl]boronic Acid] | + (Selectivity < 50) | 5.30 to 6.30 | < 5.30 |  |  |  |
| C/C=C(/C)C(=O)N(CC)CC(=O)N[C@@H](Cc1ccc(C)cc1C)B(O)O [Compound No. 21, [(1R)-2-(2,4-dimethylphenyl)-1-[[2-[ethyl-[(Z)-2-methylbut-2-enoyl]amino]acetyl]amino]ethyl]boronic Acid] |  |  |  | ++ (50 ≤ Selectivity < 70) | 6.30 to 7.30 | < 5.30 |
| C=CC(=O)N(CC(=O)N[C@@H](Cc1ccc(Cl)cc1Cl)B(O)O)C1CC1 [Compound No. 70, [(1R)-1-[[2-[cyclopropyl(prop-2-enoyl)amino]acetyl]amino]-2-(2,4-dichlorophenyl)ethyl]boronic Acid] | +++++ (Selectivity ≥ 150) | > 7.30 | < 5.30 |  |  |  |
| C=CC(=O)N1CCCC[C@H]1C(=O)N[C@@H](Cc1ccc(C)cc1C)B(O)O [Compound No. 39, [(1R)-2-(2,4-dimethylphenyl)-1-[[(2S)-1-prop-2-enoylpiperidine-2-carbonyl]amino]ethyl]boronic Acid] | ++ (50 ≤ Selectivity < 70) | 5.30 to 6.30 | < 5.30 |  |  |  |
| Cc1ccc(C[C@H](NC(=O)CN(C)C(=O)/C=C/Cl)B(O)O)c(C)c1 [Compound No. 13, [(1R)-1-[[2-[[(E)-3-chloroprop-2-enoyl]-methyl-amino]acetyl]amino]-2-(2,4-dimethylphenyl)ethyl]boronic Acid] |  |  |  | +++++ (Selectivity ≥ 150) | > 7.30 | 5.30 to 6.30 |
| C=CC(=O)N(C)CC(=O)N[C@@H](Cc1ccc(Cl)cc1Cl)B(O)O [Compound No. 85, [(1R)-2-(2,4-dichlorophenyl)-1-[[2-[methyl(prop-2-enoyl)amino]acetyl]amino]ethyl]boronic Acid] | +++++ (Selectivity ≥ 150) | > 7.30 | < 5.30 |  |  |  |
| C=CC(=O)N(CCC)CC(=O)N[C@@H](Cc1ccc(C)cc1C)B(O)O [Compound No. 6, [(1R)-2-(2,4-dimethylphenyl)-1-[[2-[prop-2-enoyl(propyl)amino]-acetyl]amino]ethyl]boronic Acid] |  |  |  | +++++ (Selectivity ≥ 150) | 6.30 to 7.30 | < 5.30 |
| C=CC(=O)N(CC(=O)N[C@@H](Cc1ccc(C)cc1C)B(O)O)CC(F)F [Compound No. 84, [(1R)-1-[[2-[2,2-difluoroethyl(prop-2-enoyl)amino]acetyl]-amino]-2-(2,4-dimethylphenyl)ethyl]boronic Acid] | +++++ (Selectivity ≥ 150) | 6.30 to 7.30 | < 5.30 |  |  |  |

Second part, the compound after the results:

| Selectivity LMP7 vs Beta5 [1, 3] | pIC50 ([1]; long incubation (120 min)) | pIC50 ([2]; long incubation (120 min)) | Selectivity LMP7 vs Beta5 [1, 4] | pIC50 ([1]; incubation for 20 minutes) | pIC50 ([2]; incubation for 20 minutes) | Compound |
| --- | --- | --- | --- | --- | --- | --- |
| +++++ (Selectivity ≥ 150) | 6.30 to 7.30 | < 5.30 |  |  |  | C=CC(=O)N(CC)CC(=O)N[C@@H](Cc1cccc2ccccc12)B(O)O [Compound No. 79, [(1R)-1-[[2-[ethyl(prop-2-enoyl)amino]acetyl]amino]-2-(1-naphthyl)ethyl]boronic Acid] |
|  |  |  | + (Selectivity < 50) | 5.30 to 6.30 | < 5.30 | C=C(C)C(=O)N(CC)CC(=O)N[C@@H](Cc1ccccc1)B(O)O [Compound No. 28, [(1R)-1-[[2-[ethyl(2-methylprop-2-enoyl)amino]acetyl]amino]-2-phenyl-ethyl]boronic Acid] |
|  |  |  | +++ (70 ≤ 100) | > 7.30 | 5.30 to 6.30 | C=CC(=O)N(CC(=O)N[C@@H](Cc1ccc(C)c(C)c1)B(O)O)c1ccccc1 [Compound No. 17, [(1R)-2-(3,4-dimethylphenyl)-1-[[2-(N-prop-2-enoylanilino)acetyl]-amino]ethyl]boronic Acid] |
| +++++ (Selectivity ≥ 150) | > 7.30 | < 5.30 |  |  |  | C=CC(=O)N(CC(=O)N[C@@H](Cc1ccsc1)B(O)O)c1ccc(OC)c(OC)c1 [Compound No. 99, [(1R)-1-[[2-(3,4-dimethoxy-N-prop-2-enoyl-anilino)acetyl]-amino]-2-(3-thienyl)ethyl]boronic Acid] |
|  |  |  | +++++ (Selectivity ≥ 150) | > 7.30 | 5.30 to 6.30 | C=CC(=O)N(CC(=O)N[C@@H](Cc1ccc(C)cc1C)B(O)O)c1cccc(F)c1 [Compound No. 4, [(1R)-2-(2,4-dimethylphenyl)-1-[[2-(3-fluoro-N-prop-2-enoyl-anilino)acetyl]amino]ethyl]boronic Acid] |
|  |  |  | +++++ (Selectivity ≥ 150) | > 7.30 | 5.30 to 6.30 | C=CS(=O)(=O)N(C)CC(=O)N[C@@H](Cc1ccc(C)c(C)c1)B(O)O [Compound No. 10, [(1R)-2-(3,4-dimethylphenyl)-1-[[2-[methyl(vinylsulfonyl)amino]-acetyl]amino]ethyl]boronic Acid] |
|  |  |  | +++++ (Selectivity ≥ 150) | > 7.30 | < 5.30 | C=CC(=O)N(C)CC(=O)N[C@@H](Cc1ccc(C)cc1C)B(O)O [Compound No. 33, [(1R)-2-(2,4-dimethylphenyl)-1-[[2-[methyl(prop-2-enoyl)amino]-acetyl]amino]ethyl]boronic Acid] |
| +++++ (Selectivity ≥ 150) | > 7.30 | 5.30 to 6.30 |  |  |  | C=CC(=O)N(CC(=O)N[C@@H](Cc1ccc(Cl)cc1)B(O)O)c1ccccc1F [Compound No. 55, [(1R)-2-(4-chlorophenyl)-1-[[2-(2-fluoro-N-prop-2-enoyl-anilino)acetyl]amino]ethyl]boronic Acid] |
| +++++ (Selectivity ≥ 150) | > 7.30 | < 5.30 |  |  |  | C=CC(=O)N(CC(=O)N[C@@H](Cc1ccc(C)cc1C)B(O)O)c1c(F)cccc1F [Compound No. 43, [(1R)-1-[[2-(2,6-difluoro-N-prop-2-enoyl-anilino)acetyl]amino]-2-(2,4-dimethylphenyl)ethyl]boronic Acid] |
| +++++ (Selectivity ≥ 150) | > 7.30 | < 5.30 |  |  |  | C=CC(=O)N(CC(=O)N[C@@H](Cc1ccsc1)B(O)O)c1cccc(CC)c1 [Compound No. 94, [(1R)-1-[[2-(3-ethyl-N-prop-2-enoyl-anilino)acetyl]amino]-2-(3-thienyl)ethyl]boronic Acid] |
|  |  |  | +++++ (Selectivity ≥ 150) | > 7.30 | < 5.30 | C=CC(=O)N(C)CC(=O)N[C@@H](Cc1ccc(C)c(C)c1)B(O)O [Compound No. 16, [(1R)-2-(3,4-dimethylphenyl)-1-[[2-[methyl(prop-2-enoyl)amino]-acetyl]amino]ethyl]boronic Acid] |
|  |  |  | ++++ (100 ≤ Selectivity < 150) | 6.30 to 7.30 | < 5.30 | C=CC(=O)N(CC)CC(=O)N[C@@H](Cc1ccc(C)cc1C)B(O)O [Compound No. 34, [(1R)-2-(2,4-dimethylphenyl)-1-[[2-[ethyl(prop-2-enoyl)amino]acetyl]-amino]ethyl]boronic Acid] |
